Experimental data published in US12121522B2, “Methods of treating cancer with an mTOR inhibitor” (Revolution Medicines, Inc., priority 2022, dated 2024).

Tested on: mTORC2 activity (phosphorylation of Akt at Ser473)
Assay: Cellular selectivity mTORC1 over mTORC2 (p4EBP1 vs pAkt)
Assay type: cell-based, human
Description: The in vitro profile of RMC-5552 was characterized using standard biochemical and cellular assays to determine the mode of interaction with mTORC1 and mTORC2. The effect of RMC-5552 on established cellular readouts for mTORC1 activity (including phosphorylation of P70S6K at Thr389 and 4EBP1 at Thr37/46), mTORC2 activity (including phosphorylation of Akt at Ser473), and cellular proliferation was monitored.
RMC-5552 binds to the intracellular protein FKBP12 and engages the FRB allosteric site and the ATP binding site on the mTORC1 complex, leading to inhibition of mTOR kinase activity.

In the case of `CO[C@H]1C[C@@H]2CC[C@@H](C)[C@@](O)(O2)C(=O)C(=O)N2CCCC[C@H]2C(=O)O[C@H]([C@H](C)C[C@@H]2CC[C@@H](OC(=O)NCCOCCOCCOCCOCCOCCOCCOCCOCCC(=O)NCCS(=O)(=O)c3ccc(C(=O)N4CCOc5ccc(-c6ccc(N)nc6)cc5C4)c(C)c3F)[C@H](OC)C2)C[C@@H](O)[C@H](C)/C=C(\C)[C@@H](O)[C@@H](OC)C(=O)[C@H](C)C[C@H](C)/C=C/C=C/C=C/1C` [RMC-6272], the “selective inhibition of mTORC1 over mTORC2” value is reported as > 10 fold.
